From PubChem BioAssay (NCI)
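Grown in 96-well plates, cells were treated for 48 hours with each compound at five concentrations. Insufficient inhibition: endpoint recorded as highest concentration tested. The concentration for 50% growth inhibition is given as GI50. TGI is the concentration that stops growth completely.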

Experiments:
Experiment in all cases: NCI-60 cell line screen, 48 h
SR leukemia = tested on: SR leukemia
OVCAR-3 ovarian = tested on: OVCAR-3 ovarian
MOLT-4 leukemia = tested on: MOLT-4 leukemia
TK-10 renal = tested on: TK-10 renal
CCRF-CEM leukemia = tested on: CCRF-CEM leukemia
NCI-H226 lung = tested on: NCI-H226 lung
BT-549 breast = tested on: BT-549 breast
KM12 colon = tested on: KM12 colon
SF-268 CNS = tested on: SF-268 CNS
DU-145 prostate = tested on: DU-145 prostate
A549 NSCLC = tested on: A549 NSCLC
SNB-19 CNS = tested on: SNB-19 CNS
HCT-116 colon = tested on: HCT-116 colon
OVCAR-5 ovarian = tested on: OVCAR-5 ovarian
SK-MEL-2 melanoma = tested on: SK-MEL-2 melanoma
OVCAR-8 ovarian = tested on: OVCAR-8 ovarian
U251 CNS = tested on: U251 CNS
MDA-MB-435 = tested on: MDA-MB-435
K-562 leukemia = tested on: K-562 leukemia
ACHN renal = tested on: ACHN renal
HCT-15 colon = tested on: HCT-15 colon
SK-MEL-5 melanoma = tested on: SK-MEL-5 melanoma
COLO 205 colon = tested on: COLO 205 colon
OVCAR-4 ovarian = tested on: OVCAR-4 ovarian
SW-620 colon = tested on: SW-620 colon
NCI/ADR-RES ovarian = tested on: NCI/ADR-RES ovarian
CAKI-1 renal = tested on: CAKI-1 renal
IGROV1 ovarian = tested on: IGROV1 ovarian
RPMI-8226 leukemia = tested on: RPMI-8226 leukemia
SF-539 CNS = tested on: SF-539 CNS
MALME-3M melanoma = tested on: MALME-3M melanoma
UO-31 renal = tested on: UO-31 renal
MCF7 breast = tested on: MCF7 breast
UACC-62 melanoma = tested on: UACC-62 melanoma
HL-60(TB) leukemia = tested on: HL-60(TB) leukemia
786-0 renal = tested on: 786-0 renal
RXF 393 renal = tested on: RXF 393 renal
HOP-92 NSCLC = tested on: HOP-92 NSCLC
A498 renal = tested on: A498 renal
M14 melanoma = tested on: M14 melanoma
T-47D breast = tested on: T-47D breast
HT29 colon = tested on: HT29 colon
NCI-H460 lung = tested on: NCI-H460 lung
PC-3 prostate = tested on: PC-3 prostate
SK-MEL-28 melanoma = tested on: SK-MEL-28 melanoma
HS 578T breast = tested on: HS 578T breast
LOX IMVI melanoma = tested on: LOX IMVI melanoma
EKVX NSCLC = tested on: EKVX NSCLC
NCI-H522 lung = tested on: NCI-H522 lung
SF-295 CNS = tested on: SF-295 CNS
NCI-H23 lung = tested on: NCI-H23 lung
UACC-257 melanoma = tested on: UACC-257 melanoma
MDA-MB-231 breast = tested on: MDA-MB-231 breast
SNB-75 CNS = tested on: SNB-75 CNS
SN12C renal = tested on: SN12C renal
HOP-62 NSCLC = tested on: HOP-62 NSCLC
HCC-2998 colon = tested on: HCC-2998 colon

Structure (SMILES): FC(F)(F)c1ccc(-c2cncn2-c2ccccc2)cc1
- GI50 (SR leukemia): 1180 nM
- TGI (SR leukemia): 7.89 µM
- GI50 (OVCAR-3 ovarian): 16.6 µM
- TGI (OVCAR-3 ovarian): 38.9 µM
- GI50 (MOLT-4 leukemia): 3.9 µM
- TGI (MOLT-4 leukemia): 27.2 µM
- GI50 (TK-10 renal): 24.2 µM
- TGI (TK-10 renal): > 100 µM
- GI50 (CCRF-CEM leukemia): 2840 nM
- TGI (CCRF-CEM leukemia): 15.7 µM
- GI50 (NCI-H226 lung): 10.5 µM
- TGI (NCI-H226 lung): 27.8 µM
- GI50 (BT-549 breast): 15.1 µM
- TGI (BT-549 breast): 40.4 µM
- GI50 (KM12 colon): 20.6 µM
- TGI (KM12 colon): 70.8 µM
- GI50 (SF-268 CNS): 36.6 µM
- TGI (SF-268 CNS): > 100 µM
- GI50 (DU-145 prostate): 6.28 µM
- TGI (DU-145 prostate): 26.2 µM
- GI50 (A549 NSCLC): 11.9 µM
- TGI (A549 NSCLC): 27.5 µM
- GI50 (SNB-19 CNS): 10.4 µM
- TGI (SNB-19 CNS): 38.5 µM
- GI50 (HCT-116 colon): 1880 nM
- TGI (HCT-116 colon): 16.3 µM
- GI50 (OVCAR-5 ovarian): 23.5 µM
- TGI (OVCAR-5 ovarian): 79.4 µM
- GI50 (SK-MEL-2 melanoma): 18.2 µM
- TGI (SK-MEL-2 melanoma): 37.9 µM
- GI50 (OVCAR-8 ovarian): 13.6 µM
- TGI (OVCAR-8 ovarian): 33.8 µM
- GI50 (U251 CNS): 6.89 µM
- TGI (U251 CNS): 30.6 µM
- GI50 (MDA-MB-435): 24.4 µM
- TGI (MDA-MB-435): 88.5 µM
- GI50 (K-562 leukemia): 20.9 µM
- TGI (K-562 leukemia): 77.6 µM
- GI50 (ACHN renal): 3.68 µM
- TGI (ACHN renal): 23 µM
- GI50 (HCT-15 colon): 18.1 µM
- TGI (HCT-15 colon): > 100 µM
- GI50 (SK-MEL-5 melanoma): 13 µM
- TGI (SK-MEL-5 melanoma): 26.9 µM
- GI50 (COLO 205 colon): 19.1 µM
- TGI (COLO 205 colon): 47.1 µM
- GI50 (OVCAR-4 ovarian): 36 µM
- TGI (OVCAR-4 ovarian): > 100 µM
- GI50 (SW-620 colon): 4.03 µM
- TGI (SW-620 colon): 57.1 µM
- GI50 (NCI/ADR-RES ovarian): 7.13 µM
- TGI (NCI/ADR-RES ovarian): 30.2 µM
- GI50 (CAKI-1 renal): 4.71 µM
- TGI (CAKI-1 renal): > 100 µM
- GI50 (IGROV1 ovarian): 12.3 µM
- TGI (IGROV1 ovarian): 38.6 µM
- GI50 (RPMI-8226 leukemia): 5.75 µM
- TGI (RPMI-8226 leukemia): 27.2 µM
- GI50 (SF-539 CNS): 15.6 µM
- TGI (SF-539 CNS): 41.8 µM
- GI50 (MALME-3M melanoma): 21.1 µM
- TGI (MALME-3M melanoma): 43.1 µM
- GI50 (UO-31 renal): 4.59 µM
- TGI (UO-31 renal): 21.5 µM
- GI50 (MCF7 breast): 22.7 µM
- TGI (MCF7 breast): > 100 µM
- GI50 (UACC-62 melanoma): 11.2 µM
- TGI (UACC-62 melanoma): 24.9 µM
- GI50 (HL-60(TB) leukemia): 12.7 µM
- TGI (HL-60(TB) leukemia): 35.6 µM
- GI50 (786-0 renal): 10 µM
- TGI (786-0 renal): 21.9 µM
- GI50 (RXF 393 renal): 16.6 µM
- TGI (RXF 393 renal): 32.2 µM
- GI50 (HOP-92 NSCLC): 2890 nM
- TGI (HOP-92 NSCLC): 18.9 µM
- GI50 (A498 renal): 12.9 µM
- TGI (A498 renal): 27.1 µM
- GI50 (M14 melanoma): 13 µM
- TGI (M14 melanoma): 27.1 µM
- GI50 (T-47D breast): 15.5 µM
- TGI (T-47D breast): > 100 µM
- GI50 (HT29 colon): 21.3 µM
- TGI (HT29 colon): > 100 µM
- GI50 (NCI-H460 lung): 16.9 µM
- TGI (NCI-H460 lung): > 100 µM
- GI50 (PC-3 prostate): 13 µM
- TGI (PC-3 prostate): 35.6 µM
- GI50 (SK-MEL-28 melanoma): 39.1 µM
- TGI (SK-MEL-28 melanoma): > 100 µM
- GI50 (HS 578T breast): 16.4 µM
- TGI (HS 578T breast): 47.8 µM
- GI50 (LOX IMVI melanoma): 5.68 µM
- TGI (LOX IMVI melanoma): 23.2 µM
- GI50 (EKVX NSCLC): 17.1 µM
- TGI (EKVX NSCLC): 54.3 µM
- GI50 (NCI-H522 lung): 8.54 µM
- TGI (NCI-H522 lung): 25.2 µM
- GI50 (SF-295 CNS): 19.3 µM
- TGI (SF-295 CNS): > 100 µM
- GI50 (NCI-H23 lung): 10.4 µM
- TGI (NCI-H23 lung): 34.4 µM
- GI50 (UACC-257 melanoma): 19.9 µM
- TGI (UACC-257 melanoma): 49 µM
- GI50 (MDA-MB-231 breast): 11.8 µM
- TGI (MDA-MB-231 breast): 28.6 µM
- GI50 (SNB-75 CNS): 15.3 µM
- TGI (SNB-75 CNS): 40.7 µM
- GI50 (SN12C renal): 10.4 µM
- TGI (SN12C renal): 23.5 µM
- GI50 (HOP-62 NSCLC): 2720 nM
- TGI (HOP-62 NSCLC): 20.7 µM
- GI50 (HCC-2998 colon): 12.3 µM
- TGI (HCC-2998 colon): 26.2 µM
